The source of these data is US10179770B2, “Quinolines derivatives as novel anticancer agents” (GENOSCIENCE PHARMA, priority 2013, dated 2019).

The structures appear in SMILES notation. Structures can show the parent of a compound that is named as a salt. Where two headings read alike, the source gives them in different places. Some results are limits rather than exact numbers.

Assay [1] relates to MOLM-14. In words: EC50 determination in cancer cell lines. Format: cell-based. The following applies: Homo sapiens, 72 h. As to the method:
(§1) Compounds were added at different concentrations to each well, and cell cultures were incubated for 72 h. Vehicle (DMSO or H2O) was used as a control, and all compounds were tested in a constant percentage of vehicle. Cell outgrowth was measured using for adherent cells CellTiter […] Aqueous One Solution Cell Proliferation Assay (Promega) and for cell suspension, Sulforhodamine B colorimetric assay as described in Vichai et al. (Vichai, V. and Kirtikara, K. Nat. Protoc. 2006 (1) 1112-1116). Absorbance was measured using an Infinite F200 Pro or Sunrise TECAN plate reader.
(§2) The human melanoma cell line A375, colorectal carcinoma cell line HCT-116, hepatocellular carcinoma cell line HepG2 were cultured in Dulbecco's modified Eagle's medium supplemented with 10% fetal bovine serum and 1% Penicillin-Streptomycin. The human melanoma cell lines SK-MEL-28 and SK-MEL-5 were cultured in Minimum Essential Medium. The colorectal carcinoma cell lines HT-29 and Colo205 were respectively cultured in Mc Coy's and RPMI media. The human leukemia cell lines MV4-11 and KG-1 were cultured in Iscove's Modified Dulbecco's Media. The human leukemia cell line MOLM-14 was cultured in Minimum Essential Medium Alpha Medium supplemented with 10% Fetal Bovine Serum and 1% Penicillin-Streptomycin All culture media were supplemented with 10% fetal bovine serum and 1% Penicillin-Streptomycin except for MV4-11 cell line 20% fetal bovine serum and 1% Penicillin-Streptomycin. All the cell lines were maintained at 37° C. with 5% C02.
(§3) Briefly, adherent cells, A375, HCT-116, HepG2, SK-MEL-28, SK-MEL-5, HT-29 and Colo205 cells were respectively plated at 800, 5,000, 7,000, 2,500, 3,000-5,000, 5,000 or 5,000 cells per well onto 96-well plates in 90 μL of media per well and were allowed to grow overnight before the assay. For MV4-11 and KG-1 cells that grow in suspension, 40,000-60,000 cells were plated onto 96-well plates immediately before the assay. MOLM-14 cell line, that grow in suspension, 30,000 cells were plated onto 96-well plates immediately before the assay.
(§4) The cell growth measure was the same as described in example 51.
(§5) The experimental data are analyzed using a computer program, Graphpad Prism (GraphPad Software, Inc. La Jolla, Calif.) and EC50 values were determined as the dose of compound required to reduce absorbance values to 50% of the signal obtained for vehicle treated cell cultures and were a mean of at least two independent experiments except for EC50 values with (*) where […].

The next assay deals with HepG2. In words: EC50 determination in cancer cell lines. Format: cell-based, human. As to the method:
as §1, §2, §3, §4, §5

Another assay concerns A-375. In words: EC50 determination in cancer cell lines. Format: cell-based, human. On the procedure: as §1, §2, §3, §4, §5
In assay [2] the test system is HCT-116. In words: EC50 determination in cancer cell lines. Format: cell-based, human. On the procedure: as §1, §2
Briefly, adherent cells, A375, HCT-116, HepG2, SK-MEL-28, SK-MEL-5, HT-29 and Colo205 cells were respectively plated at 800, 5,000, 7,000, 2,500, 3,000-5,000, 5,000 or 5,000 cells per well onto 96-well plates in 90 μL of media per well and were allowed to grow overnight before the assay. For MV4-11 and KG-1 cells that grow in suspension, 40,000-60,000 cells were plated onto 96-well plates immediately before the assay. MOLM-14 cell line, that grow in suspension, 30,000 cells were plated onto 96-well plates immediately before the assay. […]
as §5

Assay [3] deals with MOLM-14. In words: Cell proliferation assay at 10 μM. It is filed as cell-based, human. The settings on record: Homo sapiens, read-out: Cell viability observed at 10 μM. On the procedure: (§6) The human melanoma cell line A375 and colorectal carcinoma cell line HCT-116 were cultured in Dulbecco's modified Eagle's medium supplemented with 10% fetal bovine serum and 1% Penicillin-Streptomycin. The human leukemia cell line MOLM-14 was cultured in Minimum Essential Medium Alpha Medium supplemented with 10% Fetal Bovine Serum and 1% Penicillin-Streptomycin. All the cell lines were maintained at 37° C. with 5% CO2.
For MOLM-14 cell line, which grows in suspension, 30,000 cells were plated onto 96-well plates immediately before the assay.
as §1
(§7) In each experiment, each point represents the average of two replicates in cell culture.
(§8) Results are presented in Table 1 below for concentrations of 10 μM of tested compounds.

For assay [4], the system named is HCT-116. In words: Cell proliferation assay at 10 μM. It is filed as cell-based. The settings on record: Homo sapiens, HCT-116, 72 h, read-out: Cell viability observed at 10 μM. On the procedure:
as §6
(§9) Briefly, adherent cells, A375 and HCT-116 cells were respectively plated at 800 or 5,000 cells per well onto 96-well plates in 90 μL of media per well and were allowed to grow overnight before the assay.
as §1, §7, §8

The subject of a further assay is A375. Put plainly: Cell proliferation assay at 10 μM. Format: cell-based, human. The settings on record: Homo sapiens, read-out: Cell viability observed at 10 μM. As to the method:
as §6, §9, §1, §7, §8

By EC50 is commonly meant the midpoint of the concentration-response curve. As to `CCN(CC)C1CCN(c2cc(-c3ccccc3)nc3cc(Cl)ccc23)CC1` [II-3, 7-chloro-2-phenyl-4-(4-N,N-diethylamino-piperidin-1-yl)quinoline], the EC50 with MOLM-14 [1] came out at 5 µM; in the assay with HepG2 (Homo sapiens, HepG2, 72 h), 8 µM; with A-375 (Homo sapiens, A-375, 72 h), 3 µM; with HCT-116 [2] (Homo sapiens, HCT-116, 72 h) it was 4 µM.

A word on the viability: it is the share of living cells, or the viability signal relative to a control. On to `CCN(CC)C1CCN(c2cc(-c3ccc(-c4ccccc4)cc3)nc3ccccc23)CC1` [IX-2, 2-(1,1′-biphenyl)-4-yl-4-(4-N,N-diethylamino-piperidin-1-yl)quinoline dihydrochloride], for which the viability at 10 µM is below 20% in the assay on MOLM-14 [3] (MOLM-14, 72 h); below 20% in the assay on HCT-116 [4]; below 20% in the assay on A375 (A-375, 72 h). Also, the EC50 in the assay on MOLM-14 [1] was found to be 4 µM; in the assay with HepG2 (Homo sapiens, HepG2, 72 h) it was 13 µM; with A-375 (Homo sapiens, A-375, 72 h) it was 3 µM; in the assay with HCT-116 [2] (Homo sapiens, HCT-116, 72 h) it was 4 µM.

Turning to `CCN(CC)C1CCN(c2cc(-c3ccc4ccccc4c3)nc3ccccc23)CC1` [VI-5, 2-(2-naphtyl)-4-(4-N,N-diethylamino-piperidin-1-yl)quinoline], the EC50 in the assay on MOLM-14 [1] was 5 µM; in the assay with HepG2 (Homo sapiens, HepG2, 72 h) it was 11 µM; with A-375 (Homo sapiens, A-375, 72 h), 4 µM; with HCT-116 [2] (Homo sapiens, HCT-116, 72 h), 6 µM.

For the compound `CN(C)CCCNc1cc(-c2ccccc2)nc2ccccc12` [XL-2, N^1,N^1-dimethyl-N^3-(2-phenylquinoline-4-yl)propane-1,3-diamine trifluoroacetate salt], the viability at 10 µM with MOLM-14 [3] (MOLM-14, 10 μM, 72 h, % of cell viability remaining) is below 20%; in the assay on HCT-116 [4] (HCT-116, 10 μM, 72 h, % of cell viability remaining), 20 to 40%; with A375 (A-375, A375, 10 μM, 72 h, % of cell viability remaining), below 20%. Moreover, the EC50 came to 3 µM in the assay on MOLM-14 [1]; 17 µM with HepG2 (Homo sapiens, HepG2, 72 h); 3 µM with A-375 (Homo sapiens, A-375, 72 h); 5 µM with HCT-116 [2] (Homo sapiens, HCT-116, 72 h).

Take `CN(C)CCCNc1cc(-c2ccccc2)nc2ccccc12` [XLI-1, N^1,N^1-dimethyl-N^3-(2-phenylquinoline-4-yl)propane-1,3-diamine]: the EC50 with HepG2 (72 h) was 10 µM; in the assay with A-375 (72 h) it was 2 µM; in the assay with HCT-116 [2] (72 h), 4 µM.

For the compound `CN(C)CCCNc1cc(-c2ccc3ccccc3c2)nc2ccccc12` [XLII-2, N^1,N^1-dimethyl-N^3-[2-(naphtalen-2-yl)quinoline-4-yl]propane-1,3-diamine hydrochloride salt], the viability at 10 µM with MOLM-14 [3] (MOLM-14, 72 h) was below 20%; with HCT-116 [4], below 20%; in the assay on A375 (A-375, 72 h), below 20%. Moreover, the EC50 in the assay with MOLM-14 [1] stood at 4 µM; with HepG2 (Homo sapiens, HepG2, 72 h), 19 µM; in the assay on A-375 (Homo sapiens, A-375, 72 h), 3 µM; in the assay on HCT-116 [2] (Homo sapiens, HCT-116, 72 h) it was 11 µM.

Turning to `CN(C)CCCNCc1cc(-c2ccccc2)nc2cc(Cl)ccc12` [XLIV-1, N^1,N^1-dimethyl-N^3-(7-chloro-2-phenylquinoline-4-ylmethyl)-propane-1,3-diamine], the concentration for a half-maximal effect (EC50) in the assay with MOLM-14 [1] was 6 µM; in the assay with HepG2 (Homo sapiens, HepG2, 72 h) it was 10 µM; in the assay with A-375 (Homo sapiens, A-375, 72 h) it was 4 µM; in the assay with HCT-116 [2] (Homo sapiens, HCT-116, 72 h) it was 6 µM.

For `COc1ccc(-c2cc(N3CCC(NC(C)(C)C)CC3)c3ccccc3n2)cc1` [XV-8, 2-(4-methoxy-phenyl)-4-(4-N-tert-butylamino-piperidin-1-yl)quinoline dihydrochloride], the viability at 10 µM with MOLM-14 [3] (MOLM-14, 72 h) was below 20%; in the assay on HCT-116 [4], above 80%; in the assay on A375 (A-375, 72 h) it was 20 to 40%. Further, the EC50 was determined as 3 µM in the assay on MOLM-14 [1]; 27 µM with HepG2 (Homo sapiens, HepG2, 72 h); 10 µM with A-375 (Homo sapiens, A-375, 72 h); 17 µM in the assay on HCT-116 [2] (Homo sapiens, HCT-116, 72 h).

For the compound `CCN(CC)C1CCN(C(C)c2cc(-c3ccccc3)nc3cc(Cl)ccc23)CC1` (stereo not shown) [XVI-4, 7-Chloro-2-phenyl-4-{1-[4-(N,N-diethylamino)-piperidin-1-yl]-eth-1-yl}quinoline dihydrochloride], the viability at 10 µM in the assay with MOLM-14 [3] (MOLM-14, 72 h) was below 20%; in the assay with HCT-116 [4], below 20%; in the assay with A375 (A-375, 72 h), below 20%. Moreover, the EC50 in the assay with MOLM-14 [1] amounted to 6 µM; with HepG2 (Homo sapiens, HepG2, 72 h), 13 µM; in the assay on A-375 (Homo sapiens, A-375, 72 h), 4 µM; in the assay with HCT-116 [2] (Homo sapiens, HCT-116, 72 h), 6 µM.

Regarding `CCN(CC)C1CCN(Cc2cc(-c3ccccc3)nc3cc(Cl)ccc23)CC1` [XVII-6, 7-Chloro-2-phenyl-4-[4-(N,N-diethylamino)-piperidin-1-ylmethyl]quinoline dihydrochloride], the viability at 10 µM with MOLM-14 [3] (MOLM-14, 72 h) was below 20%; in the assay with HCT-116 [4], below 20%; in the assay on A375 (A-375, 72 h), below 20%. For the same compound, the EC50 in the assay on MOLM-14 [1] was 5 µM; with HepG2 (Homo sapiens, HepG2, 72 h), 8 µM; with A-375 (Homo sapiens, A-375, 72 h), 3 µM; in the assay with HCT-116 [2] (Homo sapiens, HCT-116, 72 h) it was 4 µM.

Take `CC(c1cc(-c2ccccc2)nc2ccccc12)N1CCC(NC(C)(C)C)CC1` (stereo not shown) [XXIII-2, 2-phenyl-4-{1-[4-N-tert-butylamino-piperidinyl]-eth-1-yl}quinoline dihydrochloride]: the viability at 10 µM in the assay on MOLM-14 [3] (MOLM-14, 72 h) is below 20%; in the assay on HCT-116 [4], 20 to 40%; in the assay on A375 (A-375, 72 h) it was below 20%. Besides, the EC50 in the assay on MOLM-14 [1] was determined as 6 µM; in the assay on HepG2 (Homo sapiens, 72 h), 18 µM; with A-375 (Homo sapiens, 72 h), 8 µM; with HCT-116 [2] (Homo sapiens, 72 h), 11 µM.

Regarding `CN(C)CCN(C)c1cc(-c2ccc3ccccc3c2)nc2ccccc12` [XXXVII-2, N^1,N^1,N^2-trimethyl-N^2-(2-naphthalen-2-yl-quinoline-4-yl)-ethane-1,2-diamine hydrochloride salt], the viability at 10 µM was 40 to 60% with MOLM-14 [3] (MOLM-14, 72 h); above 80% in the assay on HCT-116 [4]; 40 to 60% with A375 (A-375, 72 h).

As to `CN(C)CCN(C)Cc1cc(-c2ccccc2)nc2cc(Cl)ccc12` [XXXVIII-2, N^1,N^1,N^2-trimethyl-N^2-(2-phenyl-7-chloro-quinoline-4-ylmethyl)-ethane-1,2-diamine hydrochloride salt], the viability at 10 µM was 40 to 60% in the assay with MOLM-14 [3] (MOLM-14, 72 h); below 20% with HCT-116 [4]; below 20% with A375 (A-375, 72 h).
